Laboratory results: ChEMBL document CHEMBL1697723, “A predictive ligand-based Bayesian model for human drug-induced liver injury” (Drug Metab Dispos, 2010)

Each compound was assayed on Hepatotoxicity (assay: Human drug-induced liver injury (DILI) modelling dataset from Ekins et al). Settings: not given.

Compound	Hepatotoxicity
NC1CCN(c2c(F)cc3c(=O)c(C(=O)O)cn(C4CC4)c3c2Cl)C1 (centres undefined) [CLINAFLOXACIN]	DILI negative (training set)
CCCN(CCC)C(=O)Cc1c(-c2ccc(Cl)cc2)nc2ccc(Cl)cn12 [ALPIDEM]	DILI positive (test set)
N[C@@H](C(=O)N[C@@H]1C(=O)N2C(C(=O)O)=C(Cl)CC[C@H]12)c1ccccc1 [LORACARBEF ANHYDROUS]	DILI negative (test set)
Cn1nnc2c(C(N)=O)ncn2c1=O [TEMOZOLOMIDE]	DILI negative (training set)
CCCCN1CCCCC1C(=O)Nc1c(C)cccc1C (centres undefined) [BUPIVACAINE]	DILI negative (training set)
CCCCNc1ccc(C(=O)OCCN(C)C)cc1.Cl [TETRACAINE HYDROCHLORIDE]	DILI negative (training set)
CCN(CC)CCCC(C)Nc1ccnc2cc(Cl)ccc12.O=P(O)(O)O.O=P(O)(O)O (centres undefined) [CHLOROQUINE PHOSPHATE]	DILI negative (test set)
C=C1[C@@H]2CCC3[C@@](CC[C@@H]4[C@H](C(=O)O)C[C@@H](O[C@@H]5O[C@H](CO)[C@@H](OS(=O)(=O)[O-])[C@H](OS(=O)(=O)[O-])[C@H]5OC(=O)CC(C)C)C[C@@]34C)(C2)[C@@H]1O.[K+].[K+] (some centres undefined) [ATRACTYLOSIDE]	DILI positive (training set)
CN(C)CCN(Cc1cccs1)c1ccccn1	DILI positive (test set)
O=C(O)c1ccccc1Nc1cccc(C(F)(F)F)c1 [FLUFENAMIC ACID]	DILI negative (test set)
CN(C)CCC(c1ccc(Cl)cc1)c1ccccn1.O=C(O)/C=C\C(=O)O (centres undefined) [CHLORPHENIRAMINE MALEATE]	DILI positive (training set)
Brc1ccccc1 [BROMOBENZENE]	DILI positive (test set)
CN(C)[C@@H]1C(O)=C(C(N)=O)C(=O)[C@@]2(O)C(O)=C3C(=O)c4c(O)ccc(Cl)c4[C@@H](O)[C@H]3C[C@@H]12.Cl [DEMECLOCYCLINE HYDROCHLORIDE]	DILI positive (training set)
CN1CCC(=C2c3ccccc3C=Cc3ccccc32)CC1.Cl [CYPROHEPTADINE HYDROCHLORIDE]	DILI positive (training set)
CNS(=O)(=O)Cc1ccc2[nH]cc(CCN(C)C)c2c1	DILI negative (training set)
NCCBr [BROMOETHANAMINE]	DILI positive (test set)
O=C(O)CCCC[C@@H]1SC[C@@H]2NC(=O)N[C@@H]21 [BIOTIN]	DILI negative (training set)
C[N+](C)(C)CCOP(=O)(O)OP(=O)([O-])OC[C@H]1O[C@@H](n2ccc(N)nc2=O)[C@H](O)[C@@H]1O [CITICOLINE]	DILI negative (test set)
CCCc1nc(C(C)(C)O)c(C(=O)O)n1Cc1ccc(-c2ccccc2-c2nnn[nH]2)cc1 [OLMESARTAN]	DILI negative (test set)
NCCC(O)(P(=O)(O)O)P(=O)(O)O [PAMIDRONIC ACID]	DILI negative (training set)
CC1=CC(=O)c2ccccc2C1=O [MENADIONE]	DILI positive (test set)

Compound	Hepatotoxicity
CCC1=C(C)CN(C(=O)NCCc2ccc(S(=O)(=O)NC(=O)N[C@H]3CC[C@H](C)CC3)cc2)C1=O [GLIMEPIRIDE]	DILI negative (training set)
CC(C)(C)NC[C@H](O)COc1ccccc1C1CCCC1.CC(C)(C)NC[C@H](O)COc1ccccc1C1CCCC1.O=S(=O)(O)O [PENBUTOLOL SULFATE]	DILI positive (test set)
CCOC(=O)[C@H](CCc1ccccc1)N[C@@H](C)C(=O)N1Cc2ccccc2C[C@H]1C(=O)O	DILI positive (training set)
Nc1c(CC(=O)O)cccc1C(=O)c1ccc(Br)cc1 [BROMFENAC]	DILI positive (test set)
LACTOSE, ANHYDROUS	DILI negative (test set)
O=C(O)CCc1nc(-c2ccccc2)c(-c2ccccc2)o1 [OXAPROZIN]	DILI positive (test set)
COC(=O)C(c1ccccc1)C1CCCCN1 (centres undefined) [METHYLPHENIDATE]	DILI positive (test set)
COc1cc(C)c(/C=C/C(C)=C/C=C/C(C)=C/C(=O)O)c(C)c1C [ACITRETIN]	DILI positive (training set)
Cc1ccc(Cl)c(Nc2ccccc2C(=O)[O-])c1Cl.O.[Na+] [MECLOFENAMATE SODIUM]	DILI positive (training set)
C=C[C@H]1C[N@@]2CC[C@H]1C[C@H]2[C@H](O)c1ccnc2ccc(OC)cc12 [QUININE]	DILI positive (training set)
O=C1NC(=O)C(O)(O)C(=O)N1	DILI negative (training set)
CCCOc1ccc2nc(NC(=O)OC)[nH]c2c1 [OXIBENDAZOLE]	DILI positive (training set)
Cl.O=C(O)CCCCCCNC1c2ccccc2CCc2ccccc21 [AMINEPTINE HYDROCHLORIDE]	DILI positive (test set)
CCCCC(CC)COC(=O)C=Cc1ccc(OC)cc1 (centres undefined) [OCTINOXATE]	DILI positive (test set)
CC(C)(C)NCC(O)c1cc(O)cc(O)c1.O=S(=O)(O)O (centres undefined)	DILI positive (test set)
CNNCc1ccc(C(=O)NC(C)C)cc1.Cl [PROCARBAZINE HYDROCHLORIDE]	DILI positive (training set)
O=c1[nH]c(=O)n([C@H]2C[C@H](O)[C@@H](CO)O2)cc1F [FLOXURIDINE]	DILI positive (training set)
NC(=O)c1ncn([C@@H]2O[C@H](CO)[C@@H](O)[C@H]2O)n1 [RIBAVIRIN]	DILI negative (training set)
Nc1ccn([C@@H]2CS[C@H](CO)O2)c(=O)n1 [LAMIVUDINE]	DILI negative (training set)
CC1=C(/C=C/C(C)=C/C=C/C(C)=C/C(=O)O)C(C)(C)CCC1 [TRETINOIN]	DILI positive (training set)
FCCCCCF [1,5-DIFLUOROPENTANE]	DILI positive (test set)

Compound	Hepatotoxicity
CC(=O)CC(c1ccccc1)c1c(O)c2ccccc2oc1=O (centres undefined) [WARFARIN]	DILI negative (training set)
CN(C)[C@@H]1C(O)=C(C(N)=O)C(=O)[C@@]2(O)C(O)=C3C(=O)c4c(O)ccc(Cl)c4[C@@](C)(O)[C@H]3C[C@@H]12.Cl [CHLORTETRACYCLINE HYDROCHLORIDE]	DILI positive (training set)
CC(=O)OCC1=C(C(=O)[O-])N2C(=O)[C@@H](NC(=O)CSc3ccncc3)[C@H]2SC1.[Na+] [CEPHAPIRIN SODIUM]	DILI negative (test set)
CC1(C)S[C@@H]2[C@H](NC(=O)Cc3ccccc3)C(=O)N2[C@H]1C(=O)[O-].[Na+] [PENICILLIN G SODIUM]	DILI positive (training set)
CN(C)CCCN1c2ccccc2CCc2ccccc21.Cl [IMIPRAMINE HYDROCHLORIDE]	DILI positive (training set)
C#C[C@]1(OC(C)=O)CC[C@H]2[C@@H]3CCC4=C[C@@H](OC(C)=O)CC[C@@H]4[C@H]3CC[C@@]21C [ETHYNODIOL DIACETATE]	DILI positive (training set)
C[C@]12CCC(=O)C=C1CC[C@@H]1[C@@H]2[C@@H](O)C[C@@]2(C)[C@H]1CC[C@]2(O)C(=O)CO [HYDROCORTISONE]	DILI negative (training set)
C1CCC(C(CC2CCCCN2)C2CCCCC2)CC1 (centres undefined) [PERHEXILINE]	DILI positive (training set)
Cl.Cl.O=C1c2c(O)ccc(O)c2C(=O)c2c(NCCNCCO)ccc(NCCNCCO)c21 [MITOXANTRONE HYDROCHLORIDE]	DILI positive (training set)
COc1ccc(OC)c(C(O)C(C)N)c1.Cl (centres undefined) [METHOXAMINE HYDROCHLORIDE]	DILI negative (training set)
CCOc1ccc2ccccc2c1C(=O)N[C@@H]1C(=O)N2[C@@H]1SC(C)(C)[C@@H]2C(=O)[O-].O.[Na+] [NAFCILLIN SODIUM]	DILI negative (test set)
COc1ccc([C@@H]2Sc3ccccc3N(CCN(C)C)C(=O)[C@@H]2OC(C)=O)cc1.Cl [DILTIAZEM HYDROCHLORIDE]	DILI negative (training set)
CCC1(c2ccccc2)C(=O)NCNC1=O [PRIMIDONE]	DILI negative (training set)
COC(=O)Nc1nc2ccc(C(=O)c3ccccc3)cc2[nH]1 [MEBENDAZOLE]	DILI positive (training set)
Cc1c(C)c2c(c(C)c1O)CCC(C)(COc1ccc(CC3SC(=O)NC3=O)cc1)O2 (centres undefined) [TROGLITAZONE]	DILI positive (test set)
CC(N)C(O)c1ccccc1.Cl (centres undefined) [PHENYLPROPANOLAMINE HYDROCHLORIDE]	DILI negative (training set)
CC(C)c1nc(CN(C)C(=O)N[C@H](C(=O)N[C@@H](Cc2ccccc2)C[C@H](O)[C@H](Cc2ccccc2)NC(=O)OCc2cncs2)C(C)C)cs1 [RITONAVIR]	DILI positive (test set)
CCCc1nc2c(C)cc(-c3nc4ccccc4n3C)cc2n1Cc1ccc(-c2ccccc2C(=O)O)cc1	DILI negative (training set)
COCCCC/C(=N\OCCN)c1ccc(C(F)(F)F)cc1 [FLUVOXAMINE]	DILI positive (training set)
C[C@]12C=CC(=O)C=C1CC[C@@H]1[C@@H]2C(=O)C[C@@]2(C)[C@H]1CC[C@]2(O)C(=O)CO [PREDNISONE]	DILI negative (training set)
CCC(=O)O[C@H]1[C@H](O[C@@H]2[C@@H](C)[C@H](O[C@H]3C[C@@](C)(OC)[C@@H](O)[C@H](C)O3)[C@@H](C)C(=O)O[C@H](CC)[C@@](C)(O)[C@H](O)[C@@H](C)C(=O)[C@H](C)C[C@@]2(C)O)O[C@H](C)C[C@@H]1N(C)C.CCCCCCCCCCCCOS(=O)(=O)O [ERYTHROMYCIN ESTOLATE]	DILI positive (training set)

Same assay, conditions: Liver

Compound	Hepatotoxicity
C#CC1(O)CC[C@H]2[C@@H]3CCC4=CC(=O)CC[C@@H]4[C@H]3CC[C@@]21CC (some centres undefined) [NORGESTREL]	DILI positive (training set)
OCCO [ETHYLENE GLYCOL]	DILI positive (test set)
Cc1ncc(C[n+]2csc(CCO)c2C)c(N)n1 [THIAMINE ION]	DILI negative (test set)
ClC(Cl)Cl [CHLOROFORM]	DILI positive (test set)
NNCCc1ccccc1 [PHENELZINE]	DILI negative (training set)
CC(C)(C)NC(=O)[C@@H]1C[C@@H]2CCCC[C@@H]2CN1C[C@@H](O)[C@H](Cc1ccccc1)NC(=O)[C@H](CC(N)=O)NC(=O)c1ccc2ccccc2n1.CS(=O)(=O)O [SAQUINAVIR MESYLATE]	DILI positive (test set)
